According to patent US7560536B2, “Morning glory-derived anticancer agents, and novel ipomoeassin compounds” (Virginia Tech Intellectual Properties, Inc., priority 2005, dated 2009):
Where two headings read alike, the source gives them in different places.

System: A2780 human ovarian cancer cell line
Assay: Cytotoxicity bioassay against the A2780 ovarian cancer cell line
Assay type: cell-based
Procedure: Cytotoxicity Bioassays. Cytotoxicity measurements were performed against the A2780 ovarian cancer cell line as previously described. The A2780 cell line is a drug-sensitive ovarian cancer cell line.

[1] = Homo sapiens, A2780, read-out: IC50 (concentration that inhibited 50% of the growth of the A2780 human ovarian cell line)

SMILES	IC50 [1]	IC50 (A2780 human ovarian cancer cell line, read-out: IC50 against A2780)
C/C=C(\C)C(=O)OC1C(OC(=O)/C=C/c2ccccc2)C2COC(=O)CCC(=O)CCCCCC[C@H](CCC)OC3OC(C)C(OC(C)=O)C(OC(C)=O)C3OC(O2)C1OC(C)=O (stereo partly drawn) [Compound 6, 3′,2″-O-Diacetyl ipomoeassin A]	15800 nM	–
C/C=C(\C)C(=O)OC1C(O)C2OC(COC(=O)CCC(=O)[C@@H](OC(C)=O)CCCCC[C@H](CCC)OC3OC(C)C(O)C(O)C3O2)C1OC(=O)/C=C/c1ccccc1 (stereo partly drawn) [Compound 5, Tetradecanoic acid, 5-(acetyloxy)-11-[[6-deoxy-2-O-[3-O-[(2E)-2-methyl-1-oxo-2-butenyl]-4-O-[(2E)-1-oxo-3-phenyl-2-propenyl]-β-D-glucopyranosyl]-β-D-galactopyranosyl]oxy]-4-oxo-, intramol. 1,6″-ester, (5S,11S)-]	3300 nM	–
C/C=C(\C)C(=O)OC1C(O)C2OC(COC(=O)CCC(=O)[C@@H](OC(C)=O)CCCCC[C@H](CCC)OC3OC(C)C(OC(C)=O)C(O)C3O2)C1OC(=O)/C=C/c1ccccc1 (stereo partly drawn) [Compound 4, Tetradecanoic acid, 11-[[4-O-acetyl-6-deoxy-2-O-[3-O-[(2E)-2-methyl-1-oxo-2-butenyl]-4-O-[(2E)-1-oxo-3-phenyl-2-propenyl]-β-D-glucopyranosyl]-β-D-galactopyranosyl]oxy]-5-(acetyloxy)-4-oxo-, intramol. 1,6″-ester, (5S,11S)-]	35 nM	35 nM
C/C=C(\C)C(=O)OC1C(O)C2OC(COC(=O)CCC(=O)CCCCCC[C@H](CCC)OC3OC(C)C(O)C(O)C3O2)C1OC(=O)/C=C/c1ccccc1 (stereo partly drawn) [Compound 2, Tetradecanoic acid, 11-[[6-deoxy-2-O-[3-O-[(2E)-2-methyl-1-oxo-2-butenyl]-4-O-[(2E)-1-oxo-3-phenyl-2-propenyl]-β-D-glucopyranosyl]-β-D-galactopyranosyl]oxy]-4-oxo-, intramol. 1,6″-ester, (11S)-]	400 nM	–
C/C=C(\C)C(=O)OC1C(OC(=O)/C=C/c2ccccc2)C2COC(=O)CCC(=O)[C@@H](OC(C)=O)CCCCC[C@H](CCC)OC3OC(C)C(OC(C)=O)C(OC(C)=O)C3OC(O2)C1OC(C)=O (stereo partly drawn) [Compound 7, 5,3′,2″-O-Triacetyl ipomoeassin C]	19100 nM	–
C/C=C(\C)C(=O)OC1C(O)C2OC(COC(=O)CCC(=O)CCCCCCC(CCCCC)OC3OC(C)C(OC(C)=O)C(O)C3O2)C1OC(=O)/C=C/c1ccccc1 [Compound 14, Hexadecanoic acid, 11-[[4-O-acetyl-6-deoxy-2-O-[3-O-[(2E)-2-methyl-1-oxo-2-butenyl]-4-O-[(2E)-1-oxo-3-phenyl-2-propenyl]-β-D-glucopyranosyl]-β-D-galactopyranosyl]oxy]-4-oxo-, intramol. 1,6″-ester, (11S)-]	36 nM	–
C/C=C(\C)C(=O)OC1C(O)C2OC(COC(=O)CCC(=O)[C@@H](O)CCCCC[C@H](CCC)OC3OC(C)C(OC(C)=O)C(O)C3O2)C1OC(=O)/C=C/c1ccccc1 (stereo partly drawn) [Compound 3, Tetradecanoic acid, 11-[[4-O-acetyl-6-deoxy-2-O-[3-O-[(2E)-2-methyl-1-oxo-2-butenyl]-4-O-[(2E)-1-oxo-3-phenyl-2-propenyl]-β-D-glucopyranosyl]-β-D-galactopyranosyl]oxy]-5-hydroxy-4-oxo-, intramol. 1,6″-ester, (5S,11S)-]	2900 nM	–
C/C=C(\C)C(=O)OC1C(O)C2OC(COC(=O)CCC(=O)CCCCCC[C@H](CCC)OC3OC(C)C(OC(C)=O)C(O)C3O2)C1OC(=O)/C=C/c1ccccc1 (stereo partly drawn) [Compound 1, Tetradecanoic acid, 11-[[4-O-acetyl-6-deoxy-2-O-[3-O-[(2E)-2-methyl-1-oxo-2-butenyl]-4-O-[(2E)-1-oxo-3-phenyl-2-propenyl]-β-D-glucopyranosyl]-β-D-galactopyranosyl]oxy]-4-oxo-, intramol. 1,6″-ester, (11S)-]	500 nM	–
